Source: patent US20250186432A1, “SPLEEN TYROSINE KINASE INHIBITOR, COMPOSITION, AND METHODS OF USE” (PURDUE RESEARCH FOUNDATION, priority 2022, published 2025)
Like-named read-outs stand apart in the source and are kept apart here.

Key:
[1] = target: IGF1R (Homo sapiens, UniProt P08069); test: ADP-Glo kinase inhibition assay, IGF1R
[2] = target: VEGFR (Homo sapiens, UniProt P35916); test: ADP-Glo kinase inhibition assay, VEGFR; format: biochemical; conditions: ADP-Glo
[3] = target: HGFR (Homo sapiens, UniProt P08581); test: ADP-Glo kinase inhibition assay, HGFR; format: biochemical; conditions: for IC50: ADP-Glo
[4] = target: Syk (Homo sapiens, UniProt P43405); test: ADP-Glo kinase inhibition assay, Syk
[5] = target: FGFR3 (Homo sapiens, UniProt P22607); test: ADP-Glo kinase inhibition assay, FGFR3
[6] = target: EGFR (Homo sapiens, UniProt P00533); test: ADP-Glo kinase inhibition assay, EGFR; format: biochemical; conditions: for IC50: ADP-Glo
[7] = test system: Band 3 tyrosine phosphorylation; test: Inhibition of Band 3 tyrosine phosphorylation (cellular potency); format: cell-based, human
[8] = test system: VEGFR; test: ADP-Glo kinase inhibition assay, VEGFR; format: biochemical; conditions: selectivity ratio
[9] = LogP; format: physicochemical
Excerpt: The compound can have a CLogP value between about 2.0 and about 5.0 (e.g., between 2.0 and about 5.0, about 2.0 and 5.0, or 2.0 and 5.0). In certain embodiments, e.g., compound S1213, the compound has a CLogP value of between about 1.0 and about 2.0 (e.g., between 1.0 and about 2.0, about 1.0 and 2.0, or 1.0 and 2.0). The term “cLogP” refers to a calculated partition coefficient which in the physical sciences, is the ratio of concentrations of a compound in a mixture of the two immiscible phases at equilibrium. These coefficients are a measure of the difference in solubility of the compound in these two phases. In general, this is a measure of hydrophobicity of the compound as one phase is aqueous (traditionally water) and the other is hydrophobic (traditionally octanol). Higher values indicate greater partitioning of the compound into the hydrophobic phase and support increased hydrophobicity.

[10] = Absolute oral bioavailability; conditions: in vivo, read-out: Absolute oral bioavailability F
[11] = pTyr, read-out: Inhibition of Band 3 Tyrosine Phosphorylation EC50, pTyr
[12] = Homo sapiens, read-out: Inhibition of Band 3 Tyrosine Phosphorylation EC50, pTyr
[13] = Homo sapiens, read-out: Inhibition of Band 3 Tyrosine Phosphorylation EC50, pTyr8
[14] = Homo sapiens, read-out: Inhibition of Band 3 Tyrosine Phosphorylation EC50, pTyr359

Chain of EGFR (P00533 25-1210): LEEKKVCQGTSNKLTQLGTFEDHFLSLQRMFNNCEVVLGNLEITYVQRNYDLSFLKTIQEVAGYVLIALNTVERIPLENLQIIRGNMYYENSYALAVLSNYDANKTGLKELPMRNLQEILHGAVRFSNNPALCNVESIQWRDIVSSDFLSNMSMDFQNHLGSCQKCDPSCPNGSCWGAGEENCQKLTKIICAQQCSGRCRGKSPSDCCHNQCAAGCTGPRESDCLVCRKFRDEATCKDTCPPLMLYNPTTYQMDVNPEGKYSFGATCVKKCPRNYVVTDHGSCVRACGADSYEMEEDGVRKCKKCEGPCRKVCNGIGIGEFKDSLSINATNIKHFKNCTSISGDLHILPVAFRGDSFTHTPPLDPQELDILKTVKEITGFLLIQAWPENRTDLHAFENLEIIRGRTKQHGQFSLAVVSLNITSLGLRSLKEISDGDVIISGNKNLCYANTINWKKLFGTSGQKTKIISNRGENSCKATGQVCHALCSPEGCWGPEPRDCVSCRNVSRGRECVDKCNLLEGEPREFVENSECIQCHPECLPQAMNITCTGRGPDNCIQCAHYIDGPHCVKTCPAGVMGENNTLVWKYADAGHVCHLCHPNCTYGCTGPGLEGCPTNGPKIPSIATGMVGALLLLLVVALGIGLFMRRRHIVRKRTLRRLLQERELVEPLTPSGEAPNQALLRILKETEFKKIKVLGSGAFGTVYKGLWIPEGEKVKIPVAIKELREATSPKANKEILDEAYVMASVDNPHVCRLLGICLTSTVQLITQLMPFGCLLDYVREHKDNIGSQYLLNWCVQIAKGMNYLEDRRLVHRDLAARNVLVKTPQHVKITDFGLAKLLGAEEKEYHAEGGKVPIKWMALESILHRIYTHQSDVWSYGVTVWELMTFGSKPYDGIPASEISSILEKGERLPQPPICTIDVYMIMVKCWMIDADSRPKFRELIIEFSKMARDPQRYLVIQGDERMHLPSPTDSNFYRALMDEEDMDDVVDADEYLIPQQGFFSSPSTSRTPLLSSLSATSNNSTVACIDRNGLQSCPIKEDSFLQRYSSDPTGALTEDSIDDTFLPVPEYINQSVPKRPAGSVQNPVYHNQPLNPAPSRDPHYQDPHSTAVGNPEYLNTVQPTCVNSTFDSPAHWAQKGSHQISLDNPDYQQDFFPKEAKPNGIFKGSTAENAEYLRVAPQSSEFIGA
Chain of FGFR3 (P22607 23-806): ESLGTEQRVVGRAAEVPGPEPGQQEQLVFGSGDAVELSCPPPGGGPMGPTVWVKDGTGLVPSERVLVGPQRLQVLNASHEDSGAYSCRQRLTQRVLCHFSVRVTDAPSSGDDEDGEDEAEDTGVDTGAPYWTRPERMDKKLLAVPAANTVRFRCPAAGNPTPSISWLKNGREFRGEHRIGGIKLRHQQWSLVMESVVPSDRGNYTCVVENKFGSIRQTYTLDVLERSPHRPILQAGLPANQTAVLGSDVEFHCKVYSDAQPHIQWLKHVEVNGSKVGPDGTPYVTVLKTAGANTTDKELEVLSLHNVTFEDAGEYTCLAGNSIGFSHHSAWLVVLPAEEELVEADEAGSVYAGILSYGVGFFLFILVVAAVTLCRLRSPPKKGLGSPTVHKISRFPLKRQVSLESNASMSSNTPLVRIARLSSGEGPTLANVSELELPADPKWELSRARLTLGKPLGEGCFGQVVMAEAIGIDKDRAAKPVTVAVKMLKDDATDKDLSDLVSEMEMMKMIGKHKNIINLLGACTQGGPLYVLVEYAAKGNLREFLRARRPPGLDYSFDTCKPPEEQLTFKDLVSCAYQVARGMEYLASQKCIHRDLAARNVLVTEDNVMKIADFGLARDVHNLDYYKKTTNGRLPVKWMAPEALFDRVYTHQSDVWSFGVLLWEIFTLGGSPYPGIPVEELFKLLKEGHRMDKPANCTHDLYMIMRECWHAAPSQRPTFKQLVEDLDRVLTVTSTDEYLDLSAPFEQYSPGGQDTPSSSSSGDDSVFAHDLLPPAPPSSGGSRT
Chain of HGFR (P08581 25-1390): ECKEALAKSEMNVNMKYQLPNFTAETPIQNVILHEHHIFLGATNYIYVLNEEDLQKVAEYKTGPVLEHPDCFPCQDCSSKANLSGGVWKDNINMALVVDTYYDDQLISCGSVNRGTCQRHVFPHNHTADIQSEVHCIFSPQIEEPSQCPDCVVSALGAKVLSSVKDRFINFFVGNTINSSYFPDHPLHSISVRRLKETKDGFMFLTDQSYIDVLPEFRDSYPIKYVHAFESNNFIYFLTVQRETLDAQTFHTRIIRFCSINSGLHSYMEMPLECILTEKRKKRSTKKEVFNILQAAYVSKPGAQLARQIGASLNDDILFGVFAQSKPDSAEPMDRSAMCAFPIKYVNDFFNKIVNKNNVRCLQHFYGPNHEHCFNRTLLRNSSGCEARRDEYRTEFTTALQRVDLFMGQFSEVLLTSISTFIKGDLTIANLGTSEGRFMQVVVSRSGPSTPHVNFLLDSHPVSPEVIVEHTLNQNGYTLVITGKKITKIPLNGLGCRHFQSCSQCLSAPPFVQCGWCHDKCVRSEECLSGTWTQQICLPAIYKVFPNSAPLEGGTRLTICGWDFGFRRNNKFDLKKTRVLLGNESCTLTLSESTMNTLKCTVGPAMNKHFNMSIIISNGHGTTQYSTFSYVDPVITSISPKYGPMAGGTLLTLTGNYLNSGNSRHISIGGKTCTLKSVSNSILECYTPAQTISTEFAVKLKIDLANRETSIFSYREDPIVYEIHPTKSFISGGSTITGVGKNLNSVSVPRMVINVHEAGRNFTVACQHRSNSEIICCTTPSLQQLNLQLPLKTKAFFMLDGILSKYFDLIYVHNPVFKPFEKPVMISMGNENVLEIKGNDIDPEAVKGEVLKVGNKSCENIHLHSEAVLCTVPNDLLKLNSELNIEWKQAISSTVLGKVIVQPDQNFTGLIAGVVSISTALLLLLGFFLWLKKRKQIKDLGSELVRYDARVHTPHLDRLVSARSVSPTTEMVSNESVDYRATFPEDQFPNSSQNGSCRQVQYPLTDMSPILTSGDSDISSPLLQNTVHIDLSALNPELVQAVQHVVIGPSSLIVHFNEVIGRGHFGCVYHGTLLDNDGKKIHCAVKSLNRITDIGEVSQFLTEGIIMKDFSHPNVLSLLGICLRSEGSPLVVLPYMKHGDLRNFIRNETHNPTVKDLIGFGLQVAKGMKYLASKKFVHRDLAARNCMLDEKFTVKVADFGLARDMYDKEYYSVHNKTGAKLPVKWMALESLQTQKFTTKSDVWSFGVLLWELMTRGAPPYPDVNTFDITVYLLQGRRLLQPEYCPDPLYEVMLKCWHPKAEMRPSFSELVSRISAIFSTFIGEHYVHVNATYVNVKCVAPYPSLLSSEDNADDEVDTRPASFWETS
Chain of VEGFR (Homo sapiens, UniProt P35916) (P35916 whole entry): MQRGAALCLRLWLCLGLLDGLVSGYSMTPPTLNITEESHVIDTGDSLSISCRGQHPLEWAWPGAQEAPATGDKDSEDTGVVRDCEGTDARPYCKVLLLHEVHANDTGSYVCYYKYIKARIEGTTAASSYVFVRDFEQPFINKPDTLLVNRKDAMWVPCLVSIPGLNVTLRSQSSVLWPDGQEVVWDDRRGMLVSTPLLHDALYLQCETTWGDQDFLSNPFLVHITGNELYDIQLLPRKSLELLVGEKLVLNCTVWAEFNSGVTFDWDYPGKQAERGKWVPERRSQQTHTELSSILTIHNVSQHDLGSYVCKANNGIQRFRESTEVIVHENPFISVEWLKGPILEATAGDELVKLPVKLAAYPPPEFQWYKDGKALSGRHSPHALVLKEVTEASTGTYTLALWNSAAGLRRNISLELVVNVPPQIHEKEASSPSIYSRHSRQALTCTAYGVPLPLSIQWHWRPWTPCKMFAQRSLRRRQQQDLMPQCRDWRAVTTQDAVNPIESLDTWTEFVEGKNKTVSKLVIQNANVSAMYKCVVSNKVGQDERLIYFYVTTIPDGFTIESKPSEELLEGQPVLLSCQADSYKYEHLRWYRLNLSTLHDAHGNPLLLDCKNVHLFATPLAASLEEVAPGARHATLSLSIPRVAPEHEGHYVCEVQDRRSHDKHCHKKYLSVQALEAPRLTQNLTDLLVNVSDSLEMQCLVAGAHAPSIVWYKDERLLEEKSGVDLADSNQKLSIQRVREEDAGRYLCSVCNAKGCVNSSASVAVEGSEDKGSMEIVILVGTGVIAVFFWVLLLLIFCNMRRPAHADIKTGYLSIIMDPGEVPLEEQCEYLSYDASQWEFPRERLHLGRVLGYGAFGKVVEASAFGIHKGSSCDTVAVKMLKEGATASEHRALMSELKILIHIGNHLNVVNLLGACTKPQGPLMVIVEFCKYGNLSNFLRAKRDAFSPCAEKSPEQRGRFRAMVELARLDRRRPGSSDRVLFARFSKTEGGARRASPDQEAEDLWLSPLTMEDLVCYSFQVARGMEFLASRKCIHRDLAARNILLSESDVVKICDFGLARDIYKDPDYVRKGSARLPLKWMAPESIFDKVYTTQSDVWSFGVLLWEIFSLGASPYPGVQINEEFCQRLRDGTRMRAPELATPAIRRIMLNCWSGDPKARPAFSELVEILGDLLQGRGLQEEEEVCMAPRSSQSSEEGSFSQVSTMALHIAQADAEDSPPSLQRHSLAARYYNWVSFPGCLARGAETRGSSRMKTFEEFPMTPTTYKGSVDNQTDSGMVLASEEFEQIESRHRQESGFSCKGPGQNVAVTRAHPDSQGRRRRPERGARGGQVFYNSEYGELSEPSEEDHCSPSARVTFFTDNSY

IC50 [1] [µM] | IC50 [2] [µM] | IC50 [3] [µM] | IC50 [4] [µM] | IC50 [5] [µM] | IC50 [6] [µM] | Compound | further results
1.01 | 0.335 | 1.03 | 37.1 | 1.81 |  | CCc1cc2c(cc1N1CCC(N3CCOCC3)CC1)C(C)(C)c1[nH]c3cc(C#N)ccc3c1C2=O [Alectinib] | 
 |  |  |  |  |  | CCS(=O)(=O)N1CCN(c2ccc(Nc3ncc(C(N)=O)c(NC4CC4)n3)cc2)CC1 [Cerdulatinib] | IC50 ([4]; read-out: IC50 Syk, ADP-Glo): 0.032 µM
 |  |  |  |  |  | COc1cc(Nc2ncc(F)c(Nc3ccc4c(n3)NC(=O)C(C)(C)O4)n2)cc(OC)c1OC [Compound R406] | EC50 [7, 11]: 5 µM
 | 4 |  | 0.177 |  | 8 | COc1ccc(Nc2nc(-c3ccc4c(CN5CC(O)C5)c[nH]c4c3)cn3ccnc23)cc1OC [Compound S970, 1-((6-(8-((3,4-dimethoxyphenyl)amino)imidazo[1,2-a]pyrazin-6-yl)-1H-indol-3-yl)methyl)azetidin-3-ol] | EC50 [7, 12]: 1.5 µM; EC50 [7, 13]: 4.4 µM; EC50 [7, 14]: 10 µM; Ratio of IC50 SYK/Kinases: IGF1R ([1]; selectivity ratio): 55; Ratio of IC50 SYK/Kinases: VEGFR3 [8]: 22; LogP [9]: 2.29; Ratio of IC50 SYK/Kinases: HGFR ([3]; selectivity ratio): 220; Ratio of IC50 SYK/Kinases: EGFR ([6]; selectivity ratio): 44; Ratio of IC50 SYK/Kinases: SYK ([4]; selectivity ratio): 1; Ratio of IC50 SYK/Kinases: FGF3R ([5]; selectivity ratio): 55
> 5 | 2.1 | > 40 | 0.08 |  | 0.65 | COc1ccc(Nc2nc(-c3ccc4c(CN5CC(O)C5)cn(CO)c4c3)cn3ccnc23)cc1OC [Compound S970D] | EC50 [7, 12]: 0.716 µM; EC50 [7, 13]: 0.572 µM; LogP [9]: 2.28
0.9 | 0.075 | > 40 | 0.0022 |  | 0.14 | COc1ccc(Nc2nc(-c3ccc4c(CN5CC(O)C5)c[nH]c4c3)cnc2C(N)=O)cc1OC [Compound S1115, 3-((3,4,-methoxyphenyl)amino)-5-(3-((3-hydroxyazetidin-1-yl)methyl)-1H-indol-6-yl)pyrazine-2-carboxamide] | EC50 [7, 12]: 0.226 µM; EC50 [7, 13]: 0.262 µM; EC50 [7, 14]: 1.59 µM; LogP [9]: 1.42; bioavailability [10]: 2%
> 20 | > 2 | > 20 | 0.025 | > 3 | 25 | COc1ccc(Nc2nc(-c3ccc4c(CN5CC(N)C5)c[nH]c4c3)cnc2C(N)=O)cc1OC [Compound S1213] | EC50 [7, 12]: 1.5 µM; LogP [9]: 1.04; bioavailability [10]: 2%
 |  |  | 0.53 |  |  | NC(=O)c1ncc(-c2ccc3c(CN4CC(N)C4)c[nH]c3c2)nc1Nc1cccc(-n2nccn2)c1 [Compound S1214] | 
 |  |  | 0.05 |  |  | COc1ccc(Nc2nc(-c3ccc4c(CN5CC(C(=O)O)C5)c[nH]c4c3)cnc2C(N)=O)cc1OC [Compound S1219] | LogP [9]: 1.54; bioavailability [10]: 1.1%
> 10 | > 10 |  | 0.147 | > 5 | 4.3 | COc1ccc(Nc2nc(-c3ccc4c(CCCO)cn(C)c4c3)cnc2C(N)=O)cc1OC [Compound S2053] | LogP [9]: 2.63; bioavailability [10]: 8%
 |  |  | 0.68 |  |  | COc1ccc(Nc2nc(-c3ccc4c(CCCN)cn(C)c4c3)cnc2C(N)=O)cc1OC [Compound S2054] | 
0.813 | 0.244 |  |  | 9.9 |  | c1cn2cc(-c3ccc4cn[nH]c4c3)nc(Nc3ccc(N4CCOCC4)cc3)c2n1 [Entospletinib] | EC50 [7, 11]: 3 µM
 | 0.441 |  |  | 0.246 |  | CN1CCN(c2ccc(C(=O)Nc3n[nH]c4ccc(Cc5cc(F)cc(F)c5)cc34)c(NC3CCOCC3)c2)CC1 [Entrectinib] | 
0.638 | 0.0187 | 1.57 |  | 0.0914 | 0.342 | COc1cc(Nc2ncc(F)c(Nc3ccc4c(n3)N(COP(=O)(O)O)C(=O)C(C)(C)O4)n2)cc(OC)c1OC [Fostamtinib] | 
 |  |  | 0.005 to 0.046 |  |  | N#CCC1CCN(c2nc(Nc3ccc(N4CCC(O)CC4)cc3)c3c(=O)[nH]ncc3n2)CC1 [Gusacitinib] | 
2.43 | 0.778 | > 100 |  | 69.4 | 4.27 | Nc1cncc(-c2cn3ccnc3c(Nc3ccc(N4CCN(C5COC5)CC4)cc3)n2)n1 [Lanraplenib] | EC50 [7, 12]: 3 µM
> 100 | 19.6 | > 100 | 23.6 | 1.98 | 6.37 | O=C(Nc1cnn2ccc(N3CCC[C@@H]3c3cc(F)ccc3F)nc12)N1CC[C@H](O)C1 [Larotrectinib] | 
 |  |  |  |  |  | NC(=O)c1cnc(N[C@@H]2CCCC[C@@H]2N)nc1Nc1cccc(-n2nccn2)c1 [PRT062067] | EC50 [7, 11]: 0.3 µM
 | 5 | 35 |  |  | 17.6 | Oc1cc(O)cc(/C=C/c2ccc(O)c(O)c2)c1 [Piceatannal] | IC50 ([1]; read-out: IC50 IGF1R, ADP-Glo): 21.5 µM; IC50 ([5]; read-out: IC50 FGFR3, ADP-Glo): 24.7 µM
> 100 | 0.00024 | 3.02 | 13.2 | 0.0844 | 9.93 | CCn1c(=O)c(-c2cc(NC(=O)Nc3ccccc3)c(F)cc2Br)cc2cnc(NC)cc21 [Ripretinib] | 
 |  |  |  |  |  | Cc1nn(-c2ccnc(Nc3ccc(-c4csc5c(=O)cc(N6CCOCC6)oc45)cc3)n2)cc1CN1CCC1 [SRX3207] | IC50 ([4]; read-out: IC50 Syk, ADP-Glo): 0.0107 µM
 | 4.21 | 69.4 |  |  | 27 | NCCNc1ncc(C(N)=O)c(Nc2cccc(C(F)(F)F)c2)n1 [Syk II] | IC50 ([1]; read-out: IC50 IGF1R, ADP-Glo): 13.5 µM; IC50 ([4]; read-out: IC50 Syk, ADP-Glo): 0.0703 µM; IC50 ([5]; read-out: IC50 FGFR3, ADP-Glo): 36.9 µM
 | 0.0912 |  |  |  |  | COc1ccc(-c2cc3nccn3c(Nc3ncccc3C(N)=O)n2)cc1OC [Syk IV] | 
 |  |  |  |  |  | NC(=O)c1nnc(N[C@@H]2CCCC[C@@H]2N)nc1Nc1cccc2cc[nH]c12 [Syk-IN-1] | IC50 ([4]; read-out: IC50 Syk, ADP-Glo): 0.031 µM
 |  |  |  |  |  | Cc1cc(Nc2nccc(C)n2)cc(-c2cnc([C@@]3(O)CC[C@H](C(=O)O)C(C)(C)C3)s2)c1 [Syk-IN-3] | IC50 ([4]; read-out: IC50 Syk, ADP-Glo): 0.001 µM
 | 0.15 | 3.16 |  |  | 27.6 | Cn1cc(-c2nc(N[C@@H]3CCCC[C@@H]3N)c(F)c3c2C(=O)NC3)cn1 [TAK-659] | IC50 ([5]; read-out: IC50 FGFR3, ADP-Glo): 0.019 µM
 |  |  |  |  |  | Cc1cc(Nc2nc(N[C@@H]3CCOC[C@@H]3N)nnc2C(N)=O)cc2cn(C(C)(C)C)nc12 [TAS05567] | IC50 ([4]; read-out: IC50 Syk, ADP-Glo): 0.00037 µM
> 100 | 1.96 | 11.1 | 4.93 | 66.5 | 0.0388 | Cc1cc(Nc2ncnc3ccc(NC4=NC(C)(C)CO4)cc23)ccc1Oc1ccn2ncnc2c1 [Tucatinib] | 

Compound | IC50 [1] [µM] | IC50 [2] [µM] | IC50 [3] [µM] | IC50 [4] [µM] | IC50 [5] [µM] | IC50 [6] [µM] | further results
Cn1cc(-c2cc3c(N4CCN(c5ncc([C@@](C)(N)c6ccc(F)cc6)cn5)CC4)ncnn3c2)cn1 [Avapritinib] | > 100 | 2.58 | 25 | 0.28 | 1.02 | 8.73 | 
